From patent US20210236412A1, “COSMETIC COMPOSITION OF NON-AQUEOUS THIXOTROPIC NAIL VARNISH CONTAINING A NAIL-HARDENING AGENT, USE AND IMPLEMENTATION METHOD” (FIABILA, priority 2018, published 2021)

What was measured:
[1] = Sedimentation stability and color fastness of tinted varnish; format: physicochemical; details: 0.1% by weight in the varnish; one month at 45° C.
Procedure: Various cosmetic compositions in the form of nail varnish of the organic-solvent-based varnish type were prepared and applied to nails. […] The color of the varnish is then compared to a reference varnish not containing any hardening agent. • Sedimentation stability: A tinted varnish composition containing pearlescent agent and a coloring solution is prepared and is placed in an oven for 1 month at 45° C. A visual observation is made to check whether the pearlescent agent has or has not sedimented out. • Shade stability: A tinted varnish containing a mixture of the following pigments: titanium dioxide, Red 34 and ferric ferrocyanide blue, is placed in an oven at 45° C. for 30 days.
firstly, a pearlescent agent: titanium oxide-coated mica sold under the name Flamenco Gold, 6-48 μm, by BASF,
and, secondly, Pigment Red 34: organic pigment sold by Sun Chemical.
This pigment was ground in order to be able to be incorporated. The grinding procedure included mixing the solvents with the pigment, stirring to deagglomerate the pigment, then incorporating the nitrocellulose. Once the latter had dissolved, the plasticizer was incorporated with stirring, which was continued for 20 minutes. […]
Titanium oxide-coated mica (Flamenco Gold, 6-48 μm, from BASF) 2% by weight The stability of the compositions thus prepared was evaluated by visual observation after storage for one month at 45° C.

[2] = Viscosity, Brookfield viscometer; format: physicochemical; details: concentrations of less than 1% by weight
Procedure: (§1) Various cosmetic compositions in the form of nail varnish of the organic-solvent-based varnish type were prepared and applied to nails. The tests hereinafter were performed on these varnishes: • Gloss: 100 μm of varnish was applied to a Leneta-type panel. After drying, the gloss was measured at an angle of incidence of 60° using a Minolta 268 glossmeter. • Flexibility: An aluminum plate covered with a varnish of 300 μm wet is subjected to a slow stamping and the depth of the penetration is measured (ISO1520). • Varnish hardness: It was measured using a Persoz pendulum on a glass plate covered with a varnish with a thickness of 100 μm wet, after drying at room temperature, according to the ISO1522 standard. • Adhesion: A “cross hatch test” is carried out on a glass plate. A score of 0 corresponds to an absence of loss of adhesion. A score of 5 corresponds to a total loss of adhesion. • Solids content: Between 0.5 and 1 g of varnish is poured into a dish. […] The stability of this shade, and more specifically the appearance or not of any syneresis, is observed. • Odor: The odor of the varnish is compared to that of a varnish not containing any hardening agent. • Viscosity: The viscosity of the product is measured at 25° C. using a Brookfield viscometer. […]

[3] = test system: nails of the hand; assay: In vivo test of nail hardening on panels of 30 persons; set-up: species or system human; details: 0.05% by weight in the varnish composition, three weeks
Excerpt: The varnish was applied under normal conditions of use (namely one application every three days, after having removed the previous varnish). Comparative composition 5 contained 0.05% of hexane, comparative composition 6 contained 0.05% by weight of citral, comparative composition 9 contained 0.05% by weight of caproic acid and composition 7 according to the present invention contained 0.05% by weight of sorbic acid. […] The respective compositions and also the results of the physical tests and observed by the panelists are collated in table 2 hereinafter.

[4] = format: physicochemical
Procedure: as §1

| SMILES | discoloration of the shade [1] | influence on the viscosity of the varnish composition [2] | subjects who found an overall improvement in the quality and the hardness of their nails [3] | influence on the stability of the varnish composition [4] | maximum amount that can be incorporated into the varnish without causing yellowing [4] |
| --- | --- | --- | --- | --- | --- |
| O=P(O)(O)O [Phosphoric acid] | discolors the Pigment Red 34 | – | – | – | – |
| C/C=C/C=C/C(=O)O [sorbic acid] | – | does not have any influence | more than 83% | does not have any influence | less than 1 % by weight |
